In ChEMBL document CHEMBL4002642, “Design, synthesis and evaluation of antiproliferative activity of melanoma-targeted histone deacetylase inhibitors” (Bioorg Med Chem Lett, 2017):
Active and inactive are the calls of the source. The rule behind the calls is not given here.

What was measured:
LNCaP = test: Cytotoxicity against human LNCAP cells assessed as growth inhibition after 72 hrs by MTS assay; assay type: functional, cell-based
Histone deacetylase 1 [1] = molecular target: T1, Histone deacetylase 1 (Homo sapiens, UniProt Q13547); test: Inhibition of HDAC1 (unknown origin)
A-375 = test: Cytotoxicity against human A375 cells assessed as growth inhibition after 72 hrs by MTS assay; assay type: functional, cell-based; conditions: A-375, 72 h
B16-F10 [2] = test: Cytotoxicity against mouse B16F10 cells assessed as growth inhibition after 72 hrs by MTS assay; assay type: functional, cell-based; conditions: B16-F10, 72 h
[3] = molecular target: T2, Protein deacetylase HDAC6 (Homo sapiens, UniProt Q9UBN7); test: Inhibition of HDAC6 (unknown origin)
T2 sequence (Q9UBN7 whole entry): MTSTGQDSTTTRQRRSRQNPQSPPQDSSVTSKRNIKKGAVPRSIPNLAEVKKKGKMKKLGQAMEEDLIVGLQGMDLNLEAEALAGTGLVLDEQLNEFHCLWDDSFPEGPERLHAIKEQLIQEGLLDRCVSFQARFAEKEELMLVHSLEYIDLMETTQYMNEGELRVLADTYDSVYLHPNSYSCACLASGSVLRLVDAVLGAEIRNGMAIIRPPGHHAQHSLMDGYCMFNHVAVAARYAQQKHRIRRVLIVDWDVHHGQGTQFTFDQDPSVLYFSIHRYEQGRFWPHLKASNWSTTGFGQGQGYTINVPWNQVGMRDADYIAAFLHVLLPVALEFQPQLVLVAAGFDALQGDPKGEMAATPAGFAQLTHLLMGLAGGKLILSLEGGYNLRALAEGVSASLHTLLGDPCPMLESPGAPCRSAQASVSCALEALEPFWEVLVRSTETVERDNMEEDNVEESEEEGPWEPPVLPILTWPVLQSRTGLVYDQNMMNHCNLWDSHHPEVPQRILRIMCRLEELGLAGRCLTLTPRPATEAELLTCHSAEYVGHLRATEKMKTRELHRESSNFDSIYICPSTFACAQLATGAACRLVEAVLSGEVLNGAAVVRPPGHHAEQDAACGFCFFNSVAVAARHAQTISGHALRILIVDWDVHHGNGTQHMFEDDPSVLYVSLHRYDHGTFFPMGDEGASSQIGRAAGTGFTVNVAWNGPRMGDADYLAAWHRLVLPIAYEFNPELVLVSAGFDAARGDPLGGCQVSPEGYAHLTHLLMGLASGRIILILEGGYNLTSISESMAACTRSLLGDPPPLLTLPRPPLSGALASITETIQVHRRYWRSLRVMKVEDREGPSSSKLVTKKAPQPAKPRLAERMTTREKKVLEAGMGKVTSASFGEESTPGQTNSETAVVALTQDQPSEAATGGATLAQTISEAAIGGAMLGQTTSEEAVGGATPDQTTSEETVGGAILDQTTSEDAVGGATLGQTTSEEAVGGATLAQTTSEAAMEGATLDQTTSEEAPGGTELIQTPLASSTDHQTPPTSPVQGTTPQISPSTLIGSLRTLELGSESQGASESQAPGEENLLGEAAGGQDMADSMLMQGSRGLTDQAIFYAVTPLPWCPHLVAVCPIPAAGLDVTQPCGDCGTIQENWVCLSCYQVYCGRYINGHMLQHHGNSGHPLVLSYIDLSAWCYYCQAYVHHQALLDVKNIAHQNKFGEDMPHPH

B16-F10 [4] = test: Cytotoxicity against mouse B16F10 cells assessed as growth inhibition after 72 hrs in presence of verapamil by MTS assay; assay type: functional, cell-based
[5] = molecular target: T3, Protein deacetylase HDAC6 (Mus musculus) (UniProt Q9Z2V5); test: Inhibition of HDAC6 in mouse B16F10 cells assessed as accumulation of acetylated tubulin at 20 uM after 24 hrs by Western blot analysis; assay type: cell-based
T3 sequence (whole entry): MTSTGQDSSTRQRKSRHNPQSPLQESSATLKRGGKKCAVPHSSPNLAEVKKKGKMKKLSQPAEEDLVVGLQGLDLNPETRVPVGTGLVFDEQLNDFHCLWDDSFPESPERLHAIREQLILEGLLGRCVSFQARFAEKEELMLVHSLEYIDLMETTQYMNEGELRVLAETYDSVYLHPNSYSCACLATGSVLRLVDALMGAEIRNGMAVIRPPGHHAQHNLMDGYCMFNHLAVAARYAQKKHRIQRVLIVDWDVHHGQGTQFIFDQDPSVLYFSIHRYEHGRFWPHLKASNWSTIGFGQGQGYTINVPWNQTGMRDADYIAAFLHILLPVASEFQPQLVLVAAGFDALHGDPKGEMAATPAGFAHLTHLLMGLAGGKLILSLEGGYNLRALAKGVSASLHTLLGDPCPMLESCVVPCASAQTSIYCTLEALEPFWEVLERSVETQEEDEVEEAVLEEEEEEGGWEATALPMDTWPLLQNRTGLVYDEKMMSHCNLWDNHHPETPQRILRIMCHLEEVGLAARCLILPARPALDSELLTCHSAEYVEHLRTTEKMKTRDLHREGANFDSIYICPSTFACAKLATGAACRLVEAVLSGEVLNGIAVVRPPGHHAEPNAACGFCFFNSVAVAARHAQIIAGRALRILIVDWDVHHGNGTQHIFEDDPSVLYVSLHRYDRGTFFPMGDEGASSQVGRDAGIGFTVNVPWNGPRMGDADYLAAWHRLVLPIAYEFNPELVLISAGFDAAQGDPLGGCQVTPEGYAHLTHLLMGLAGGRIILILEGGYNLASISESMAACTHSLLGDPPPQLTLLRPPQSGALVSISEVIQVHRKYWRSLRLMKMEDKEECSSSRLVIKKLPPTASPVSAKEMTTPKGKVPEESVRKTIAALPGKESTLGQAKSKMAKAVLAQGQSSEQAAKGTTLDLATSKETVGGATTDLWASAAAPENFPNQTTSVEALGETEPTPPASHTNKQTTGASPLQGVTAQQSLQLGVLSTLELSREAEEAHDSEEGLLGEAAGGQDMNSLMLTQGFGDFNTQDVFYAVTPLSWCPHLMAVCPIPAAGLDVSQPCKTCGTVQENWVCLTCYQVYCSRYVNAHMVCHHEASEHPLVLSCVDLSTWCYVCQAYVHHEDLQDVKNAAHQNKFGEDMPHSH

B16-F10 [6] = test: Cytotoxicity against mouse B16F10 cells assessed as growth inhibition at 25 to 50 uM after 72 hrs by MTS assay; assay type: functional, cell-based
[7] = molecular target: T3, Protein deacetylase HDAC6 (Mus musculus); test: Inhibition of HDAC6 in mouse B16F10 cells assessed as accumulation of acetylated tubulin at 5 to 50 uM after 24 hrs by Western blot analysis; assay type: cell-based
Histone deacetylase 1 [8] = molecular target: T1, Histone deacetylase 1; test: Inhibition of HDAC1 (unknown origin) at 5 uM relative to control
[9] = molecular target: T4, Histone deacetylase 8 (Homo sapiens) (UniProt Q9BY41); test: Inhibition of HDAC8 (unknown origin) at 5 uM relative to control
T4 sequence (whole entry): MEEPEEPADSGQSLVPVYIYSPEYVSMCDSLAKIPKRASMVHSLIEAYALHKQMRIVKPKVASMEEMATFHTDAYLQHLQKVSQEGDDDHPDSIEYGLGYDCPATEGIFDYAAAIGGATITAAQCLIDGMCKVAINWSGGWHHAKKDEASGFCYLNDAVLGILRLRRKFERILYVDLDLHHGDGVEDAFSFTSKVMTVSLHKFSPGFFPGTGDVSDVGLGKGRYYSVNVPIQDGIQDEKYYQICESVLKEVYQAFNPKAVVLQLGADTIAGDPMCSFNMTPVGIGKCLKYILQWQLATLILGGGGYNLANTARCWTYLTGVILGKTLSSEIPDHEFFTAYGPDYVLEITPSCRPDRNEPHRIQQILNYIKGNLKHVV

[10] = molecular target: T5, Protein deacetylase HDAC6 (Homo sapiens) (UniProt Q9UBN7); test: Inhibition of HDAC6 (unknown origin) at 5 uM relative to control
T5 sequence (whole entry): T2 sequence (Q9UBN7 whole entry)

[11] = molecular target: T3, Protein deacetylase HDAC6 (Mus musculus); test: Inhibition of HDAC6 in mouse B16F10 cells assessed as accumulation of acetylated tubulin after 24 hrs by Western blot analysis; assay type: cell-based

T1 sequence (Q13547 whole entry): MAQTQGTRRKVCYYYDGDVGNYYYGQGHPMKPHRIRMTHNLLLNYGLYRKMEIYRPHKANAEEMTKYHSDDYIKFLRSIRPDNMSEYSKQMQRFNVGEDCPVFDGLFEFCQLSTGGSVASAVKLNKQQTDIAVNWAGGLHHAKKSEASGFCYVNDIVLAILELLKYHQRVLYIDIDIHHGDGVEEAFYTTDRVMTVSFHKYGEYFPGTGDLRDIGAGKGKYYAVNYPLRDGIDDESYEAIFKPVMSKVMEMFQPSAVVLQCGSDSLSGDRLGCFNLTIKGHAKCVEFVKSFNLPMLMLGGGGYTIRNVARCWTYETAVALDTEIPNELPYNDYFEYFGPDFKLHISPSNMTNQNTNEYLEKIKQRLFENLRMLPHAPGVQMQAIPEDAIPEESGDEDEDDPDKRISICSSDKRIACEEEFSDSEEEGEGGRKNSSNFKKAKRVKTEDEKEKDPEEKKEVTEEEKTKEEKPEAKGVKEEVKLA

IC50 (Histone deacetylase 1 [1]) | IC50 [3] | inhibition [5] | inhibition [7] | inhibition (Histone deacetylase 1 [8]) | inhibition [9] | inhibition [10] | inhibition [11] | SMILES | IC50 (LNCaP) | IC50 (A-375) | IC50 (B16-F10 [2]) | growth inhibition (GI) (B16-F10 [4]) | growth inhibition (GI) (B16-F10 [6])
0.1 µM | 0.17 µM |  |  |  |  |  |  | CCN(CC)CCNC(=O)c1ccc(-c2cn(CCCCCC(=O)NO)nn2)cn1 | 10.5 µM | > 100 µM | > 100 µM |  | 
0.012 µM | 0.027 µM |  |  |  |  |  |  | CCN(CC)CCNC(=O)c1ccc(-c2cn(CCCCCCCC(=O)NO)nn2)cc1 | 3 µM | > 100 µM | 75.9 µM |  | 
0.017 µM | 0.034 µM |  |  |  |  |  |  | CCN(CC)CCNC(=O)c1ccc(-c2cn(CCCCCCC(=O)NO)nn2)cn1 | 1.5 µM | 47.2 µM | 55.7 µM | inactive | 
 |  | Active |  |  |  |  |  | COc1ccc2cc(-c3cn(CCCCCC(=O)NO)nn3)ccc2c1 | 5.1 µM | 12.6 µM | 10.5 µM |  | 
 |  | Active |  |  |  |  |  | O=C(CCCCCCC(=O)Nc1ccccc1)NO |  |  |  |  | 
0.0038 µM | 0.016 µM |  | Active |  |  |  |  | CCN(CC)CCNC(=O)c1ccc(-c2cn(CCCCCCC(=O)NO)nn2)cc1 | 1.2 µM | 23.6 µM | 34.2 µM | inactive | Active
 |  |  |  | 100% | 52% | 99% | Dose-dependent effect | CCN(CC)CCNC(=O)c1ccc(C(=O)ONC(=O)CCCCCn2cc(-c3ccc4cc(OC)ccc4c3)nn2)cc1 | 6.46 µM | 25.9 µM | 27.8 µM |  | Active
